Measurements taken from article PMC3984115 (PLoS ONE, 2014).
Where a SMILES comes first, the peptide text is derived from it. Bridges are numbered along the chain shown (N, C = ends). [ ]: non-standard residue; d: D form. Hyp = O=C(O)[C@@H]1C[C@@H](O)CN1

Legend:
Test in all cases: cell-based
[1] = target: T1, human α6/α3β4 nAChR (Homo sapiens, UniProt P30926+P32297+Q15825)
T1 construct: expressed in transfected cells; host or cells: Xenopus laevis oocytes (cRNA injection, 1:1 ratio)

[2] = target: T2, human α3β4 nAChR (Homo sapiens, UniProt P30926+P32297)
T2 construct: expressed in transfected cells; host or cells: Xenopus laevis oocytes (cRNA injection, 1:1 ratio)

[3] = target: T3, human α6/α3β2β3 nAChR (Homo sapiens, UniProt P17787+P32297+Q05901+Q15825)
T3 construct: expressed in transfected cells; host or cells: Xenopus laevis oocytes (cRNA injection, 1:1 ratio)
T3 sequence (P17787 whole entry, looked up): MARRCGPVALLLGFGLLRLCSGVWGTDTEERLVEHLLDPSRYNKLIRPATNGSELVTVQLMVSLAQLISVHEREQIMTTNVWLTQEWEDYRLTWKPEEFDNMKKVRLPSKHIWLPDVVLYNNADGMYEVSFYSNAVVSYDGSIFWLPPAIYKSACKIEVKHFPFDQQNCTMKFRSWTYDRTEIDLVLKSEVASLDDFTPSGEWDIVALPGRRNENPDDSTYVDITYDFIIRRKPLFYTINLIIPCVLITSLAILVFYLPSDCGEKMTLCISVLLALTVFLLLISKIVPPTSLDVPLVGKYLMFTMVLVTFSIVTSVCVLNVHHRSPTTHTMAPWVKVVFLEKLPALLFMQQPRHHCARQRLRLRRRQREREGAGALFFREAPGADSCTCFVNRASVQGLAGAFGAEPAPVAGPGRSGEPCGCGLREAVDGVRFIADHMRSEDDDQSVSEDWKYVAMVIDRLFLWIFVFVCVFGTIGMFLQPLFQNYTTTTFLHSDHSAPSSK
T3 sequence (P32297 whole entry, looked up): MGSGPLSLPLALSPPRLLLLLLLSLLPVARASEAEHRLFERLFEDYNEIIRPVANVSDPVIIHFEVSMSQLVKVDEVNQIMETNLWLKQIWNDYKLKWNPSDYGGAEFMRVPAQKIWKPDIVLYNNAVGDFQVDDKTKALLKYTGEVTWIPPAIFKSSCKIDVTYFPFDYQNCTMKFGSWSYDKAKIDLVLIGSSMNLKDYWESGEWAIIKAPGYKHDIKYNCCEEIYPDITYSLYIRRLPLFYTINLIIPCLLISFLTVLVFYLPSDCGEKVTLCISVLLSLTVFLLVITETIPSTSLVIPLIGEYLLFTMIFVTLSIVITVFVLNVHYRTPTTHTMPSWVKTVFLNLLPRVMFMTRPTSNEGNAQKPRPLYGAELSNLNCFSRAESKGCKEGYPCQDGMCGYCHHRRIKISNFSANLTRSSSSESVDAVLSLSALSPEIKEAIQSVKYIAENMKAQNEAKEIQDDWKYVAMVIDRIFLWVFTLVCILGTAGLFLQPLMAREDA
T3 sequence (Q05901 whole entry, looked up): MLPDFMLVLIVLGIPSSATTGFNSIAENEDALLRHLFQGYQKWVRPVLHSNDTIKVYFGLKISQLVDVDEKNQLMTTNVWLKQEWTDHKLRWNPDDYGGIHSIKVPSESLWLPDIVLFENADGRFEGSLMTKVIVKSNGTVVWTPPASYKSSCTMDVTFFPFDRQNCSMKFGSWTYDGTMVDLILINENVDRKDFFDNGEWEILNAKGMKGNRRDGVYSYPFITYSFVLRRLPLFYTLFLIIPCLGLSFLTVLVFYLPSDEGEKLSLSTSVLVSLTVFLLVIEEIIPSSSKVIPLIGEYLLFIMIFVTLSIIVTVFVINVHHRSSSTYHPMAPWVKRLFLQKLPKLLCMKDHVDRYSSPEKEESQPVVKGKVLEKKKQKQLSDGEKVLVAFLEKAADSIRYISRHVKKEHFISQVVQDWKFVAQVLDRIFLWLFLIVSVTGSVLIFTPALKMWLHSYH
T3 sequence (Q15825 whole entry, looked up): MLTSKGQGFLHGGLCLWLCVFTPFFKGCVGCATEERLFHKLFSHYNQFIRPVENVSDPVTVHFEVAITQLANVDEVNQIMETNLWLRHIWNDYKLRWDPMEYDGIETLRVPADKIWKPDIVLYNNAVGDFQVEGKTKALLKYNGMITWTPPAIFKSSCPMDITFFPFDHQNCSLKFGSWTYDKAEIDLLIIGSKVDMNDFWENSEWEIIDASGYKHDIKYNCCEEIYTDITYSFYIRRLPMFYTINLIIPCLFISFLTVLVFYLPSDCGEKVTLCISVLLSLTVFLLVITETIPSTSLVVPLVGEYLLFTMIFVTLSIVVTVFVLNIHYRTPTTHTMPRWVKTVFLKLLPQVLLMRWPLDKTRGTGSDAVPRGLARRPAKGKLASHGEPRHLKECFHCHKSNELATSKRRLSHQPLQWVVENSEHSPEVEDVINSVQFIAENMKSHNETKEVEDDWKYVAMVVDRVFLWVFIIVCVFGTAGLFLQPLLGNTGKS

T1 sequence (P30926 whole entry, looked up): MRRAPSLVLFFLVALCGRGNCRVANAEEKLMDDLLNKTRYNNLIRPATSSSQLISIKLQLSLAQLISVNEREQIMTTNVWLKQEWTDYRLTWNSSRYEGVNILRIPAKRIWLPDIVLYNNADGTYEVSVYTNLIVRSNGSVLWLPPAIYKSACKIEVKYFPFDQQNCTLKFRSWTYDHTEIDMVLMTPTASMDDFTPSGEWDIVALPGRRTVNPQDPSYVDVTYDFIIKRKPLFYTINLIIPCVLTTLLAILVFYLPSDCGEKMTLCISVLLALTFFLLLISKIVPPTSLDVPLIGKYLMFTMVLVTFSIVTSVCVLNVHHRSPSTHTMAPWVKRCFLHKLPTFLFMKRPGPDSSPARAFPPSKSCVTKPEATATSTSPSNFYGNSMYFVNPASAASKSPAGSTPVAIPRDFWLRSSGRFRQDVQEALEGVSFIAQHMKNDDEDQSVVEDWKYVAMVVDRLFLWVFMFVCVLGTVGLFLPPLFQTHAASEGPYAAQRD
T1 sequence (P32297 whole entry, looked up): as the sequence (P32297 whole entry, looked up) above
T1 sequence (Q15825 whole entry, looked up): as the sequence (Q15825 whole entry, looked up) above
T2 sequence (P32297 32-505 limits assumed): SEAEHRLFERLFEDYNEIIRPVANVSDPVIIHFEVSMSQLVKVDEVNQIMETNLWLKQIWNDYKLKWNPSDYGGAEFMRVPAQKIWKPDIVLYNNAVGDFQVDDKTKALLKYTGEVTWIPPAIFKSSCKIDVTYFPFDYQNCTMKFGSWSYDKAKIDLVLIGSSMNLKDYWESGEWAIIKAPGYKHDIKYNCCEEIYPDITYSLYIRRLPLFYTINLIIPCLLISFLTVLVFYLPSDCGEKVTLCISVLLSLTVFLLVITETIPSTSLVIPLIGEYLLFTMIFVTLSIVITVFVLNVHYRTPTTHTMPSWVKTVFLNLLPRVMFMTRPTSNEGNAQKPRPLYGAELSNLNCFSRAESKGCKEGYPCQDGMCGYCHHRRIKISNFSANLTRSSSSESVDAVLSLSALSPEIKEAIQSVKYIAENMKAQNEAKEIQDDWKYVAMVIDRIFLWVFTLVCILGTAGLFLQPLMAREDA
T2 sequence (P30926 22-498 limits assumed): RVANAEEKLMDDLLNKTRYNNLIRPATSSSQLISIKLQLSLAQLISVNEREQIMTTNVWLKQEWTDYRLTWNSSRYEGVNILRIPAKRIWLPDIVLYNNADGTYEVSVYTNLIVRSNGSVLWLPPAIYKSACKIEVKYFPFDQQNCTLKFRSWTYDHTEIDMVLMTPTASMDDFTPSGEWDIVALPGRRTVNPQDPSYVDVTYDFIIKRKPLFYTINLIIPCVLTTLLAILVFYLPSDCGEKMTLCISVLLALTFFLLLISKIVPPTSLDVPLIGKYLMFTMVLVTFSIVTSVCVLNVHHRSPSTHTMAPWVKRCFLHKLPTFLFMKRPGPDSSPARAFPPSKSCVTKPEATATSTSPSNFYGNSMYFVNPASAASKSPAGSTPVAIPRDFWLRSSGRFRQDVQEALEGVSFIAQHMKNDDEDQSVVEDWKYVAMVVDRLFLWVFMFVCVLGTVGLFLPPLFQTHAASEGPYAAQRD

SMILES	IC50 [1] [µM]	IC50 [2] [µM]	IC50 [3] [µM]	fold selectivity, α6/α3β4 over α6/α3β2β3 (IC50 ratio) [1] [fold]
CC(C)C[C@@H]1NC(=O)[C@H](C)NC(=O)[C@@H]2CSSC[C@H](NC(=O)CN)C(=O)N[C@@H](CSSC[C@@H](C(N)=O)NC(=O)[C@H](C)NC(=O)[C@H](CC(N)=O)NC(=O)[C@H](CO)NC(=O)[C@H](Cc3cnc[nH]3)NC(=O)[C@H](CCC(=O)O)NC1=O)C(=O)N[C@@H](CO)C(=O)N[C@@H](CC(N)=O)C(=O)N1CCC[C@H]1C(=O)N[C@@H](C(C)C)C(=O)N2 [MII[H9A,L15A]] (H-GCCSNPVCALEHSNAC-NH2; disulfide 2-8, 3-16)	0.0133	1.4		
CC(C)C[C@@H]1NC(=O)[C@H](C(C)C)NC(=O)[C@H](C)NC(=O)[C@@H]2CSSC[C@H](NC(=O)CN)C(=O)N[C@@H](CSSC[C@@H](C(N)=O)NC(=O)[C@H](Cc3ccc(O)cc3)NC1=O)C(=O)N[C@@H](CO)C(=O)N[C@@H](C)C(=O)N1C[C@H](O)C[C@H]1C(=O)N1CCC[C@H]1C(=O)N2 [BuIA[T5A,P6O]] (H-GCCSA[Hyp]PCAVLYC-NH2; disulfide 2-8, 3-13)	0.0111		> 10	> 900
